According to patent US8227448B2, “Nutritional composition with health promoting action containing oligosaccharides” (priority 2000, dated 2012):

Tested on: EHEC binding to Caco2 cells
Assay: inhibition of pathogen (EHEC) binding to human colon cancer cells
Format: cell-based
Settings: EHEC (2×10^8 cfu/ml) on Caco2 cells; test solution 5-10 mg/ml hydrolysed fibre; 1 h at 37° C.; cfu versus blank
Description: Different oligosaccharides obtained by hydrolysis of fibres were used to measure inhibition of pathogen binding to human colon cancer cells. Cells for the binding experiment are grown under standard conditions. The growth medium is removed from the cells and 0.2 ml of minimal essential medium, 0.4 ml EHEC solution (2×10^8 cfu/ml) and 0.4 ml of test solution (5-10 mg/ml hydrolysed fibre) is added. Appropriate blanks are used as controls. Cells are incubated for an hour at 37° C., after which the medium is removed. The cells are washed five times with PBS buffer, lysed, homogenised, diluted and plated to count colony-forming units, following standard procedures. Comparison of the amount of cfu's found with the blank and with one of the fractions, the inhibiting power of the fraction can be calculated as percentage reduction in binding. The table below summarises results of binding reduction. […] All other oligosaccharides (non arabinose-containing) have lower than 60% binding reduction activity.

OC[C@H]1O[C@@H](O[C@H]2[C@H](O)[C@@H](O)C(O)O[C@@H]2CO)[C@H](O)[C@@H](O)[C@H]1O (stereo partly shown) [lactose]
% binding reduction: 28%
